Measurements as given in US11072588B2, “Barbituric acid derivatives comprising cationic and lipophilic groups” (UNIVERSITETET I TROMSØ—NORGES ARKTISKE UNIVERSITET, priority 2017, dated 2021).
Values after ≈ are worked out from the molar mass of the structure shown. Like-named read-outs stand apart in the source and are kept apart here.

How the values were obtained:
[1] = tested on: panel of 30 multi-resistant clinical isolates of Gram-positive and Gram-negative bacteria; experiment: MIC screening, ranges over the panel of clinical isolates; type: cell-based
[2] = tested on: Staphylococcus aureus ATCC 9144; experiment: MIC assay, antibiotic susceptible reference strain; type: cell-based; details: Staphylococcus aureus, ATCC9144, read-out: Antimicrobial activity (MIC) S. a
Method in brief: (§1)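 Broth microdilution followed CLSI M07-A9 with modifications: inoculum ~2.5-3×10^4 cells/mL in Mueller-Hinton broth, mixed 1:1 with test derivative, incubated 48 h at 35 °C. MIC was the lowest concentration giving no growth by OD600, tested in three parallels, with oxytetracycline as reference antibiotic.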

[3] = tested on: Escherichia coli ATCC 25922; experiment: MIC assay, antibiotic susceptible reference strain; type: cell-based; details: Escherichia coli, ATCC25922, read-out: Antimicrobial activity (MIC) E. c
Method in brief: as §1

[4] = tested on: Pseudomonas aeruginosa PA01, DSM 19880 (ATCC 15692); experiment: MIC assay, antibiotic susceptible reference strain; type: cell-based; details: Pseudomonas aeruginosa, read-out: Antimicrobial activity (MIC) P. a
Method in brief: as §1

[5] = tested on: E. faecium K36-18; experiment: MIC, multi-resistant clinical isolate; type: cell-based, Enterococcus faecium; details: for MIC: Enterococcus faecium, K3618, read-out: Antimicrobial activity (MIC); for selectivity index (EC50/MIC): RBC EC50 / MIC, E. faecium K36-18
[6] = tested on: E. faecium 50901530; experiment: MIC, multi-resistant clinical isolate; type: cell-based, Enterococcus faecium; details: for MIC: Enterococcus faecium, read-out: Antimicrobial activity (MIC); for selectivity index (EC50/MIC): RBC EC50 / MIC
[7] = tested on: E. faecium 50673722; experiment: MIC, multi-resistant clinical isolate; type: cell-based, Enterococcus faecium; details: for MIC: Enterococcus faecium, read-out: Antimicrobial activity (MIC); for selectivity index (EC50/MIC): RBC EC50 / MIC
[8] = tested on: E. faecium 50758899; experiment: MIC, multi-resistant clinical isolate; type: cell-based, Enterococcus faecium; details: for MIC: Enterococcus faecium, read-out: Antimicrobial activity (MIC); for selectivity index (EC50/MIC): RBC EC50 / MIC
[9] = tested on: E. faecium TUH50-22; experiment: MIC, multi-resistant clinical isolate; type: cell-based, Enterococcus faecium; details: for MIC: Enterococcus faecium, TUH5022, read-out: Antimicrobial activity (MIC); for selectivity index (EC50/MIC): RBC EC50 / MIC
[10] = tested on: E. coli 50579417; experiment: MIC, multi-resistant clinical isolate; type: cell-based, Escherichia coli; details: for MIC: Escherichia coli, read-out: Antimicrobial activity (MIC); for selectivity index (EC50/MIC): RBC EC50 / MIC
[11] = tested on: E. coli 50857972; experiment: MIC, multi-resistant clinical isolate; type: cell-based, Escherichia coli; details: for MIC: Escherichia coli, read-out: Antimicrobial activity (MIC); for selectivity index (EC50/MIC): RBC EC50 / MIC
[12] = tested on: E. coli 50639799; experiment: MIC, multi-resistant clinical isolate; type: cell-based, Escherichia coli; details: for MIC: Escherichia coli, read-out: Antimicrobial activity (MIC); for selectivity index (EC50/MIC): RBC EC50 / MIC
[13] = tested on: E. coli 50676002; experiment: MIC, multi-resistant clinical isolate; type: cell-based, Escherichia coli; details: for selectivity index (EC50/MIC): RBC EC50 / MIC
[14] = tested on: K. pneumoniae 50667959; experiment: MIC, multi-resistant clinical isolate; type: cell-based, Klebsiella pneumoniae; details: for MIC: Klebsiella pneumoniae, read-out: Antimicrobial activity (MIC)
[15] = tested on: K. pneumoniae 50531633; experiment: MIC, multi-resistant clinical isolate; type: cell-based, Klebsiella pneumoniae; details: K. pneumoniae 50531633, resistant to colistin; for MIC: Klebsiella pneumoniae, 24 h, read-out: Antimicrobial activity (MIC); for selectivity index (EC50/MIC): RBC EC50 / MIC
[16] = tested on: K. pneumoniae 50625602; experiment: MIC, multi-resistant clinical isolate; type: cell-based, Klebsiella pneumoniae; details: for MIC: Klebsiella pneumoniae, read-out: Antimicrobial activity (MIC)
[17] = tested on: K. pneumoniae K47-25; experiment: MIC, multi-resistant clinical isolate; type: cell-based, Klebsiella pneumoniae; details: for MIC: Klebsiella pneumoniae, K4725, 24 h, read-out: Antimicrobial activity (MIC)
[18] = tested on: K. pneumoniae K66-45; experiment: MIC, multi-resistant clinical isolate; type: cell-based, Klebsiella pneumoniae; details: for MIC: Klebsiella pneumoniae, K6645, read-out: Antimicrobial activity (MIC)
[19] = tested on: P. aeruginosa K34-73; experiment: MIC, multi-resistant clinical isolate; type: cell-based, Pseudomonas aeruginosa; details: for MIC: Pseudomonas aeruginosa; for selectivity index (EC50/MIC): RBC EC50 / MIC
[20] = tested on: P. aeruginosa K44-24; experiment: MIC, multi-resistant clinical isolate; type: cell-based, Pseudomonas aeruginosa; details: for MIC: Pseudomonas aeruginosa, K4424, read-out: Antimicrobial activity (MIC)
[21] = tested on: P. aeruginosa 50692520; experiment: MIC, multi-resistant clinical isolate; type: cell-based, Pseudomonas aeruginosa; details: for MIC: Pseudomonas aeruginosa, read-out: Antimicrobial activity (MIC); for selectivity index (EC50/MIC): RBC EC50 / MIC
[22] = tested on: P. aeruginosa 50692172; experiment: MIC, multi-resistant clinical isolate; type: cell-based, Pseudomonas aeruginosa; details: for MIC: Pseudomonas aeruginosa, read-out: Antimicrobial activity (MIC); for selectivity index (EC50/MIC): RBC EC50 / MIC
[23] = tested on: P. aeruginosa K34-7; experiment: MIC, multi-resistant clinical isolate; type: cell-based, Pseudomonas aeruginosa; details: for MIC: Pseudomonas aeruginosa, K347, read-out: Antimicrobial activity (MIC); for selectivity index (EC50/MIC): RBC EC50 / MIC, P. aeruginosa K34-7

Structure (SMILES): NCCCCN1C(=O)N(CCCCN)C(=O)C(Cc2ccc3ccccc3c2)(Cc2ccc3ccccc3c2)C1=O [7(iv), 1,3-bis(4-aminobutyl)-5,5-bis(naphtalen-2-yl-methyl)-pyrimidin-2,4,6(1H,3H,5H)-trione]
- MIC ([1]; Enterococcus faecium, read-out: MIC values against the Gram-positive isolates of S. aurues and E. faecium): 4 to 16 µg/mL (≈ 7.26 to 29.1 µM)
- MIC [2]: 8 µg/mL (≈ 14.5 µM)
- MIC [3]: 16 µg/mL (≈ 29.1 µM)
- MIC [4]: 16 µg/mL (≈ 29.1 µM)
- MIC [5]: 16 µg/mL (≈ 29.1 µM)
- selectivity index (EC50/MIC) [5]: (15)
- MIC [6]: 8 µg/mL (≈ 14.5 µM)
- selectivity index (EC50/MIC) [6]: (30)
- MIC [7]: 16 µg/mL (≈ 29.1 µM)
- selectivity index (EC50/MIC) [7]: (15)
- MIC [8]: 16 µg/mL (≈ 29.1 µM)
- selectivity index (EC50/MIC) [8]: (15)
- MIC [9]: 8 µg/mL (≈ 14.5 µM)
- selectivity index (EC50/MIC) [9]: (30)
- MIC [10]: 16 µg/mL (≈ 29.1 µM)
- selectivity index (EC50/MIC) [10]: (15)
- MIC [11]: 16 µg/mL (≈ 29.1 µM)
- selectivity index (EC50/MIC) [11]: (15)
- MIC [12]: 16 µg/mL (≈ 29.1 µM)
- selectivity index (EC50/MIC) [12]: (15)
- MIC ([13]; Escherichia coli, 50676002, read-out: Antimicrobial activity (MIC)): 16 µg/mL (≈ 29.1 µM)
- selectivity index (EC50/MIC) ([13]; E. coli 50676002): (15)
- MIC [14]: > 32 µg/mL
- MIC [15]: 32 µg/mL (≈ 58.1 µM)
- selectivity index (EC50/MIC) [15]: (8)
- MIC [16]: > 32 µg/mL
- MIC [17]: > 32 µg/mL
- MIC [18]: > 32 µg/mL
- MIC ([19]; K3473, read-out: Antimicrobial activity (MIC)): 32 µg/mL (≈ 58.1 µM)
- selectivity index (EC50/MIC) ([19]; P. aeruginosa K34-73): (8)
- MIC [20]: > 32 µg/mL
- MIC [21]: 32 µg/mL (≈ 58.1 µM)
- selectivity index (EC50/MIC) [21]: (8)
- MIC [22]: 32 µg/mL (≈ 58.1 µM)
- selectivity index (EC50/MIC) [22]: (8)
- MIC [23]: 32 µg/mL (≈ 58.1 µM)
- selectivity index (EC50/MIC) [23]: (8)

Structure (SMILES): N=C(N)NCCCCN1C(=O)N(CCCCNC(=N)N)C(=O)C(Cc2cc(Br)cc(Br)c2)(Cc2cc(Br)cc(Br)c2)C1=O [8(ii), 1,1′-(4,4′-(5,5-bis(3,5-dibromobenzyl)-2,4,6-trioxodihydropyrimidine-1,3(2H,4H)-diyl)bis(butane-4,1-diyl))diguanidine]
- MIC ([1]; read-out: MIC values against all the 30 multi-resistant clinical isolates): 2 to 16 µg/mL (≈ 2.35 to 18.8 µM)
- MIC [2]: 1 µg/mL (≈ 1.18 µM)
- MIC [3]: 2 µg/mL (≈ 2.35 µM)
- MIC [4]: 4 µg/mL (≈ 4.7 µM)
- MIC [5]: 4 µg/mL (≈ 4.7 µM)
- selectivity index (EC50/MIC) [5]: (14)
- MIC [6]: 2 µg/mL (≈ 2.35 µM)
- selectivity index (EC50/MIC) [6]: (28)
- MIC [7]: 4 µg/mL (≈ 4.7 µM)
- selectivity index (EC50/MIC) [7]: (14)
- MIC [8]: 4 µg/mL (≈ 4.7 µM)
- selectivity index (EC50/MIC) [8]: (14)
- MIC [9]: 2 µg/mL (≈ 2.35 µM)
- selectivity index (EC50/MIC) [9]: (28)
- MIC [10]: 4 µg/mL (≈ 4.7 µM)
- selectivity index (EC50/MIC) [10]: (14)
- MIC [11]: 4 µg/mL (≈ 4.7 µM)
- selectivity index (EC50/MIC) [11]: (14)
- MIC [12]: 4 µg/mL (≈ 4.7 µM)
- selectivity index (EC50/MIC) [12]: (14)
- MIC ([13]; Escherichia coli, E. coli 50676002, read-out: Antimicrobial activity (MIC)): 4 µg/mL (≈ 4.7 µM)
- selectivity index (EC50/MIC) ([13]; E. coli 50676002): (14)
- MIC [14]: 4 µg/mL (≈ 4.7 µM)
- selectivity index (EC50/MIC) ([14]; RBC EC50 / MIC): (14)
- MIC [15]: 4 µg/mL (≈ 4.7 µM)
- selectivity index (EC50/MIC) [15]: (14)
- MIC [16]: 4 µg/mL (≈ 4.7 µM)
- selectivity index (EC50/MIC) ([16]; RBC EC50 / MIC): (14)
- MIC ([17]; K. pneumoniae K47-25, resistant to colistin): 4 µg/mL (≈ 4.7 µM)
- selectivity index (EC50/MIC) ([17]; RBC EC50 / MIC, K. pneumoniae K47-25, resistant to colistin): (14)
- MIC [18]: 4 µg/mL (≈ 4.7 µM)
- selectivity index (EC50/MIC) ([18]; RBC EC50 / MIC, K. pneumoniae K66-45): (14)
- MIC ([19]; K3473, P. aeruginosa K34-73, read-out: Antimicrobial activity (MIC)): 8 µg/mL (≈ 9.41 µM)
- selectivity index (EC50/MIC) ([19]; P. aeruginosa K34-73): (7)
- MIC [20]: 8 µg/mL (≈ 9.41 µM)
- selectivity index (EC50/MIC) ([20]; RBC EC50 / MIC): (7)
- MIC [21]: 16 µg/mL (≈ 18.8 µM)
- selectivity index (EC50/MIC) [21]: (4)
- MIC [22]: 8 µg/mL (≈ 9.41 µM)
- selectivity index (EC50/MIC) [22]: (7)
- MIC [23]: 8 µg/mL (≈ 9.41 µM)
- selectivity index (EC50/MIC) [23]: (7)
